The values below come from ChEMBL document CHEMBL5390211, “Discovery of N-Arylsulfonyl-Indole-2-Carboxamide Derivatives as Galectin-3 and Galectin-8 C-Terminal Domain Inhibitors” (ACS Med Chem Lett, 2023).

The target of assay [1] is T1, Galectin-8 (Homo sapiens, UniProt O00214).
T1 sequence (O00214 whole entry): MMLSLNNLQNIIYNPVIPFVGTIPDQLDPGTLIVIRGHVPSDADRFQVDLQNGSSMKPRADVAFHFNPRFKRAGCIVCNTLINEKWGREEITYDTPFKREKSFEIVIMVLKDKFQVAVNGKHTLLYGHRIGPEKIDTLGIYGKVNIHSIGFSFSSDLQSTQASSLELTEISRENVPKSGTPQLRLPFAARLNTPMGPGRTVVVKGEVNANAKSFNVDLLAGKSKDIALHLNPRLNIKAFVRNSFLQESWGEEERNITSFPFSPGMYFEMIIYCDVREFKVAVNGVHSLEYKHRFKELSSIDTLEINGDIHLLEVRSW
The assay can be described thus: Binding affinity to C-terminal domain human Gal-8 expressed in Escherichia coli BL21 (DE3) cells by competitive fluorescence polarization assay.

The target in assay [2] is T1, Galectin-8. The assay is described as follows: Binding affinity to N-terminal domain human Gal-8 expressed in Escherichia coli BL21star (DE3) cells by competitive fluorescence polarization assay. On the technique in general: In fluorescence polarisation assays a small probe gives low polarisation when free and higher when bound to something large.
The target of assay [3] is T1, Galectin-8. The assay is described as follows: Binding affinity to N-terminal domain human Gal-8 expressed in Escherichia coli BL21 (DE3) cells by competitive fluorescence polarization assay.
Another assay deals with MRC5. The assay can be described thus: Inhibition of cell migration in human MRC5 cells assessed as reduction in would closure at 1 uM incubated for 48 hrs by Giemsa staining based microscopic analysis relative to control. The class given is toxicity.
The target in assay [4] is T1, Galectin-8. The assay can be described thus: Binding affinity to N-terminal domain human Gal-8 expressed in Escherichia coli BL21 (DE3) cells by isothermal titration calorimetry analysis. In general terms: In ITC the heat of successive injections is recorded.
Assay [5] addresses T1, Galectin-8. The assay is described as follows: Binding affinity to C-terminal domain human Gal-8 expressed in Escherichia coli BL21 (DE3) cells by isothermal titration calorimetry analysis.

As for `OC[C@H]1O[C@@H](S[C@@H]2O[C@H](CO)[C@H](O)[C@H](n3cc(-c4cccc(F)c4)nn3)[C@H]2O)[C@H](O)[C@@H](n2cc(-c3cccc(F)c3)nn2)[C@H]1O` [OLITIGALTIN], the dissociation constant Kd (commonly the free concentration of one partner at which half of the binding sites on the other are occupied at equilibrium, for simple one-to-one binding) on Galectin-8 [1] came to 21.6 µM; at Galectin-8 [2] it was 86 µM; at Galectin-8 [3], 281 µM. The inhibition (usually the share of the control response that was lost under treatment) at 1 µM in the assay with MRC5 is 49%.
For the molecule LACTOSE, ANHYDROUS, the values for the dissociation constant Kd at Galectin-8 [4] and at Galectin-8 [5] were 893 µM and 93 µM, respectively.
